How the values were obtained:
[1] = Dissociation constant, pKa by potentiometric titration method; format: physicochemical
[2] = tested on: Sciatic nerve; assay: Anesthetic activity in toad sciatic nerves assessed as sciatic nerve block activity; format: functional, Bufo bufo
[3] = tested on: Sciatic nerve; assay: Anesthetic activity in toad sciatic nerves assessed as sciatic nerve block activity relative to Lidocaine; format: functional, Bufo bufo; design: unit not given here
[4] = tested on: Sciatic nerve; assay: Anesthetic activity in toad sciatic nerves assessed as latent period of sciatic nerve block; format: functional, Bufo bufo

Structure (SMILES)	pKa [1]	Activity [2] [%]	Activity [3]	Latent period of sciatic nerve block [4] [min]
Fc1ccc2c(c1)N(CCCN1CCOCC1)c1cc(F)ccc1CC2	7.6	–	–	–
Cl.Fc1ccc2c(c1)N(CCCN1CCCCC1)c1cc(F)ccc1CC2	–	0.039	48.7	39.8
CCN(CC)CCCN1c2cc(F)ccc2CCc2ccc(F)cc21.Cl	–	0.018	105.5	38.2
Cl.Fc1ccc2c(c1)N(CCCN1CCOCC1)c1cc(F)ccc1CC2	–	0.029	65.5	37.3
CN(C)CCCN1c2cc(F)ccc2CCc2ccc(F)cc21.Cl	–	0.094	20.2	30.7
Fc1ccc2c(c1)N(CCCN1CCCC1)c1cc(F)ccc1CC2	7.9	–	–	–
Fc1ccc2c(c1)N(CCCN1CCCCC1)c1cc(F)ccc1CC2	7.6	–	–	–
Cl.Fc1ccc2c(c1)N(CCCN1CCCC1)c1cc(F)ccc1CC2	–	0.069	27.5	40.6
CN(C)CCCN1c2cc(F)ccc2CCc2ccc(F)cc21	7.7	–	–	–
CCN(CC)CCCN1c2cc(F)ccc2CCc2ccc(F)cc21	7.7	–	–	–
CCN(CC)CC(=O)Nc1c(C)cccc1C.Cl	–	0.019	100	37.2

Reference: ChEMBL document CHEMBL1139951, “Synthesis and local anesthetic activity of fluoro-substituted imipramine and its analogues” (Bioorg Med Chem Lett, 2007)
